From BindingDB's records for patent US12071420 (Hoffmann-La Roche, 2024)

Target: Cannabinoid receptor 2 (Homo sapiens, UniProt P34972)
Test: Radioligand Binding Assay
Experimental: The affinity of the compounds of the invention for cannabinoid CB1 receptors was determined using recommended amounts of membrane preparations (PerkinElmer) of human embryonic kidney (HEK) cells expressing the human CNR1 or CNR2 receptors in conjunction with 1.5 or 2.6 nM [3H]-CP-55,940 (Perkin Elmer) as radioligand, respectively. Binding was performed in binding buffer (50 mM Tris, 5 mM MgCl2, 2.5 mM EDTA, and 0.5% (wt/vol) fatty acid free BSA, pH 7.4 for CB1 receptor and 50 mM Tris, 5 mM MgCl2, 2.5 mM EGTA, and 0.1% (wt/vol) fatty acid free BSA, pH 7.4 for CB2 receptor) in a total volume of 0.2 ml for 1 h at 30° C. shaking. The reaction was terminated by rapid filtration through microfiltration plates coated with 0.5% polyethylenimine (UniFilter GF/B filter plate; Packard). Bound radioactivity was analyzed for Ki using nonlinear regression analysis (Activity Base, ID Business Solution, Limited), with the Kd values for [3H]CP55,940 determined from saturation experiments. The compounds of formula (I) show an excellent affinity for the CB2 receptor.

Sequence of Cannabinoid receptor 2 (P34972 whole entry): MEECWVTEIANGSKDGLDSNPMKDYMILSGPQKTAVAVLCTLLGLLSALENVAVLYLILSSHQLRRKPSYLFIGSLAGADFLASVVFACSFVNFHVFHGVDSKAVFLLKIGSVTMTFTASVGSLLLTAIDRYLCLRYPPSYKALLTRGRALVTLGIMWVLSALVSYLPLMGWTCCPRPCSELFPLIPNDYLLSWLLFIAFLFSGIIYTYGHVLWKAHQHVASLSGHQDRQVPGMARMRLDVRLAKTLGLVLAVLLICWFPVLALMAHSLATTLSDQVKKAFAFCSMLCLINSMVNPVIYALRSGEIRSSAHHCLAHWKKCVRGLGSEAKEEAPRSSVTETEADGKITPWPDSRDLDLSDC

Ki: 0.014 µM
SMILES: COC1CN(c2ccc(C(=O)N[C@H](COCF)CC(C)C)nc2OCC2CC2)C1 [US12071420, Example 25]
